Assays:
[1] = biological target: 5-hydroxytryptamine receptor 2A (Homo sapiens) (UniProt P28223); test: Agonist activity in the Eurofins Cerep SafetyScreen44 (BI) against 5HT2AH_AGON by Scintillation counting (Cerep_471); conditions: Compound concentration 10.0 uM
[2] = biological target: 5-hydroxytryptamine receptor 2B (Homo sapiens) (UniProt P41595); test: 5-HT2B Eurofins-Cerep binding assay; conditions: Compound concentration 10.0 uM
[3] = biological target: 5-hydroxytryptamine receptor 3A (Homo sapiens) (UniProt P46098); test: 5-HT3 Eurofins-Cerep binding assay; design: ligand concentration 0.5 nM; conditions: Compound concentration 10.0 uM
Chain of 5-hydroxytryptamine receptor 3A (Homo sapiens) (P46098 whole entry): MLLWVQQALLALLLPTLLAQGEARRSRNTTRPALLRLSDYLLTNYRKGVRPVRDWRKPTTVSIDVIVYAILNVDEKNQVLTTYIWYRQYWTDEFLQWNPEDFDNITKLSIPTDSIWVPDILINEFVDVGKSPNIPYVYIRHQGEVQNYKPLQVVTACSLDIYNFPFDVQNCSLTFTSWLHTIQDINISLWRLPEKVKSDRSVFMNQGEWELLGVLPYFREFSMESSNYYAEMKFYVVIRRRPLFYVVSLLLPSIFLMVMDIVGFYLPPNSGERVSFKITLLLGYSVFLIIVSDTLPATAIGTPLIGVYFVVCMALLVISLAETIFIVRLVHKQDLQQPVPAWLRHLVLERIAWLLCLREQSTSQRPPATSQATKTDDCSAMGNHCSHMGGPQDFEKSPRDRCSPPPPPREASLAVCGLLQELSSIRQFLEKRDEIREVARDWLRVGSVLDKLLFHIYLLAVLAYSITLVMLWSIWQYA

[4] = biological target: Adenosine receptor A2a (Homo sapiens) (UniProt P29274); test: A2A Eurofins-Cerep binding assay; design: ligand concentration 6 nM; conditions: Compound concentration 10.0 uM
Chain of Adenosine receptor A2a (Homo sapiens) (P29274 whole entry): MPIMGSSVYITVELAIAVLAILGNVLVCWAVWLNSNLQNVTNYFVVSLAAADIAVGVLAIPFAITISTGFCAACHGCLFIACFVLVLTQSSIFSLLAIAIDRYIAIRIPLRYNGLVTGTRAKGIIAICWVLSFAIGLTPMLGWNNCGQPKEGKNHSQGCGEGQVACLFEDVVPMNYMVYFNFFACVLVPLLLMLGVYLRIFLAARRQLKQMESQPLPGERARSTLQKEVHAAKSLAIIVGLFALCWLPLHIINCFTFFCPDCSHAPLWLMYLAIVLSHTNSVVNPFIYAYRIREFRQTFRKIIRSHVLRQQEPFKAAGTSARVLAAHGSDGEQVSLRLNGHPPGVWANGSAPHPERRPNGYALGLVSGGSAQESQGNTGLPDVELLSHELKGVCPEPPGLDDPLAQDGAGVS

Rattus norvegicus [5] = organism: Rattus norvegicus; test: Activity against BZD/CENTR/R in the Eurofins Cerep SafetyScreen44 (BI) by Radioactive Assay (Cerep_28); assay type: protein-complex assay; conditions: Compound concentration 10.0 uM
[6] = biological target: Histamine H2 receptor (Homo sapiens) (UniProt P25021); test: H2 Eurofins-Cerep binding assay; design: ligand concentration 0.075 nM; conditions: Compound concentration 10.0 uM
hERG (KCNH2) = hERG (KCNH2) (Homo sapiens, UniProt Q12809); test: Inhibitor of HERG_DOFETILIDE in the Eurofins Cerep SafetyScreen44 (BI) by Scintillation counting (Cerep_4094); design: scale not given: the % may be the effect or the level left; conditions: probe [3H] dofetilide, compound concentration 10 uM, read-out: % Ctrl
[7] = biological target: Muscarinic acetylcholine receptor M1 (Homo sapiens) (UniProt P11229); test: M1 Eurofins-Cerep binding assay; design: ligand concentration 2 nM; conditions: Compound concentration 10.0 uM
[8] = biological target: Glutamate NMDA receptor (Rattus norvegicus) (UniProt P35439+Q00959+Q00960+Q00961+Q62645+Q8VHN2+Q9R1M7); test: Inhibitor of NMDA/R in the Eurofins Cerep SafetyScreen44 (BI) by Radioactive Assay (Cerep_66); assay type: protein-complex assay; conditions: Compound concentration 10.0 uM
[9] = biological target: T1, Neuropeptide Y receptor type 2 (Homo sapiens, UniProt P49146); test: Radioligand binding assay (NPY2R, SMS-KAN cells); assay type: cell-based
T1 sequence (P49146 whole entry): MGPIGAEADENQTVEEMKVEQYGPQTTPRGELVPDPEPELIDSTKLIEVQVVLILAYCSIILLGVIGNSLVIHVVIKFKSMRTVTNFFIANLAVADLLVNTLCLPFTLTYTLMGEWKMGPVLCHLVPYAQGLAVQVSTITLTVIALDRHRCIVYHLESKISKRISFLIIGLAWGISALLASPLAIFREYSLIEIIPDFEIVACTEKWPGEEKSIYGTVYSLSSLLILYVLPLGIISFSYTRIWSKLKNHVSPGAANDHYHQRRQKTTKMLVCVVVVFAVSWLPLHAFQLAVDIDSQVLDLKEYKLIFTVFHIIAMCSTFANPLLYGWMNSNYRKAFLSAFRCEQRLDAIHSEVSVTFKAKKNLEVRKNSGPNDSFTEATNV

Oryctolagus cuniculus = organism: Oryctolagus cuniculus; test: Activity against 5HT3/RB in the Eurofins Panlabs screen (BI) by Radioactive Assay; conditions: Compound concentration 10.0 uM
[10] = biological target: Polyunsaturated fatty acid 5-lipoxygenase (Homo sapiens) (UniProt P09917); test: Activity against 5LO in the Eurofins Panlabs screen (BI) by Radioactive Assay; conditions: Compound concentration 30.0 uM
[11] = biological target: Adrenergic receptor alpha-2 (Rattus norvegicus) (UniProt P22086+P19328+P22909); test: Activity against ALPHA2/R in the Eurofins Panlabs screen (BI) by Others; assay type: protein assay; conditions: Compound concentration 10.0 uM
[12] = biological target: Alpha-2B adrenergic receptor (Rattus norvegicus) (UniProt P19328); test: Activity against ALPHA2B/R in the Eurofins Panlabs screen (BI); conditions: Compound concentration 10.0 uM
[13] = biological target: Glutamate receptor 1 (Rattus norvegicus) (UniProt P19490); test: Activity against AMPA/RA in the Eurofins Panlabs screen (BI); conditions: Compound concentration 10.0 uM
Rattus norvegicus [14] = organism: Rattus norvegicus; test: Activity against BETA/R in the Eurofins Panlabs screen (BI) by Radioactive Assay; conditions: Compound concentration 10.0 uM
[15] = biological target: L-type calcium channel (dihydropyridine site), Cav1.2 alpha-1C (Rattus norvegicus, UniProt P22002); test: Activity against CA+/DHPSI/RA in the Eurofins Panlabs screen (BI) by Radioactive Assay; conditions: compound concentration 10 uM, read-out: % Ctrl
Chain of L-type calcium channel (dihydropyridine site), Cav1.2 alpha-1C (P22002 whole entry): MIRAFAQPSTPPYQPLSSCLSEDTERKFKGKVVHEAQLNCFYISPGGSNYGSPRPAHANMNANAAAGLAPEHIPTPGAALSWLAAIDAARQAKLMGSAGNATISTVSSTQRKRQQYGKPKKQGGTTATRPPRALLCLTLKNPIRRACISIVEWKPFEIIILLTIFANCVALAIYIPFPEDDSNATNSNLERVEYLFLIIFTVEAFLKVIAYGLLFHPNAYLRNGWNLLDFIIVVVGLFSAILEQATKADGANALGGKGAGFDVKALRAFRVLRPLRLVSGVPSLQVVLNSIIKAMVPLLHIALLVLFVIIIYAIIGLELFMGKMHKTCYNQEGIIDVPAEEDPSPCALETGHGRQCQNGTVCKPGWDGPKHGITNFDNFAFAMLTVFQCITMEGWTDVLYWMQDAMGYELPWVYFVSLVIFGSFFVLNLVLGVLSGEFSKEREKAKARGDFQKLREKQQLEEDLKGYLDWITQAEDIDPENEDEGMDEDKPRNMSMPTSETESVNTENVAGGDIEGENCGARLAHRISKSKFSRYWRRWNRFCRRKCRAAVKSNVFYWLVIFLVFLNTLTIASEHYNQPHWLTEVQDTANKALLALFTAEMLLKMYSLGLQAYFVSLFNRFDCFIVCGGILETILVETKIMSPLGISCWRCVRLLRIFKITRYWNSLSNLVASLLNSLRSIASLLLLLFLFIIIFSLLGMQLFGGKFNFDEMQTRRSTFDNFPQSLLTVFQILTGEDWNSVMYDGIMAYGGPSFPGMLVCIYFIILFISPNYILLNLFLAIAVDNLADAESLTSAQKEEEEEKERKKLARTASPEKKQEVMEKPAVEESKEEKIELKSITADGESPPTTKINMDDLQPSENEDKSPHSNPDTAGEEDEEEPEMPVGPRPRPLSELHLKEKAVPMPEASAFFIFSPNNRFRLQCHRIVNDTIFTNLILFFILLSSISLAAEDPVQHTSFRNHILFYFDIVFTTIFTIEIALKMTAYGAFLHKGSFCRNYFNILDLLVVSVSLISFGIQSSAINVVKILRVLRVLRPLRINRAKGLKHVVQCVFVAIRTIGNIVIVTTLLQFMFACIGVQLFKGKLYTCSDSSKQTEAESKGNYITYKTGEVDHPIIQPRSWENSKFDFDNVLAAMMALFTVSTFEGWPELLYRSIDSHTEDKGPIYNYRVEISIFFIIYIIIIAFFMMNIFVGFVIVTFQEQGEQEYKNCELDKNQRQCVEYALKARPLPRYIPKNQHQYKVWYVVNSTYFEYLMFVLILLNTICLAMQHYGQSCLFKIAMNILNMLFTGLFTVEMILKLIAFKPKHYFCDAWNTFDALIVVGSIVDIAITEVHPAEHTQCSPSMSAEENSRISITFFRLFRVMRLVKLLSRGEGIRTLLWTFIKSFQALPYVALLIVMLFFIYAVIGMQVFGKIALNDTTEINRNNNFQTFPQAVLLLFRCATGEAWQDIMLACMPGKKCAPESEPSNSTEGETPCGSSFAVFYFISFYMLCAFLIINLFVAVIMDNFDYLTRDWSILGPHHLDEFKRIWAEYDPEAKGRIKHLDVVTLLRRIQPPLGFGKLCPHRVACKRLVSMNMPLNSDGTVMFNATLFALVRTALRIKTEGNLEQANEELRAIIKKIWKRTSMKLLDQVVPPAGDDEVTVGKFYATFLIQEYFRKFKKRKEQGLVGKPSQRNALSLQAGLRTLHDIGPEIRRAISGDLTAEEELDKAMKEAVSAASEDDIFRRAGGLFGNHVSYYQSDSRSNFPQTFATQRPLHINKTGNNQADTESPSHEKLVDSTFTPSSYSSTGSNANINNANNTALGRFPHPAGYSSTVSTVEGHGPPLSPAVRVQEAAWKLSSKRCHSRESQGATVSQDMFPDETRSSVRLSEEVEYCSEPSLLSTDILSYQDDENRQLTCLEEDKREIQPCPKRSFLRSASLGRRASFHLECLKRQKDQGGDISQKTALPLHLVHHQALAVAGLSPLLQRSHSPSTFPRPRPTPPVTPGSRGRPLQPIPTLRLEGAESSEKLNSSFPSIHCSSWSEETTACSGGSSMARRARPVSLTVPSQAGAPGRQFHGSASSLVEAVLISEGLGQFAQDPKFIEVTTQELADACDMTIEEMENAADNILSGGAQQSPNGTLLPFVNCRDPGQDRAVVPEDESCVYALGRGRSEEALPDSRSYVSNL

[16] = biological target: Gastrin/cholecystokinin type B receptor (Mus musculus) (UniProt P56481); test: Activity against CCKB/M in the Eurofins Panlabs screen (BI); conditions: Compound concentration 10.0 uM
Chain of Gastrin/cholecystokinin type B receptor (Mus musculus) (P56481 whole entry): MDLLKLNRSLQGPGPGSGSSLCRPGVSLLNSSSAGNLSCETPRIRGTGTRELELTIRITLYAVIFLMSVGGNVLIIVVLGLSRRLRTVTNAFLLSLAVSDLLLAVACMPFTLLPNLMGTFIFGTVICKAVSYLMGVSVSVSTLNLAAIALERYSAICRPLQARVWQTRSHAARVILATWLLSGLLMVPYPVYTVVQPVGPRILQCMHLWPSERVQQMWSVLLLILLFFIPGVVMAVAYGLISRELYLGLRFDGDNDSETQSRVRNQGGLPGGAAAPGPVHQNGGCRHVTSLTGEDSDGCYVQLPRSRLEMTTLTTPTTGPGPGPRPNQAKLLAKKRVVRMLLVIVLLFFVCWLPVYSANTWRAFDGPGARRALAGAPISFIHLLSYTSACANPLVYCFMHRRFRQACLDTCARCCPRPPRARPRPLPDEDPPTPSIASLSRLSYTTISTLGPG

[17] = biological target: D(2) dopamine receptor (Homo sapiens) (UniProt P14416); test: Activity against D2HSPIP in the Eurofins Panlabs screen (BI); conditions: Compound concentration 10.0 uM
Chain of D(2) dopamine receptor (Homo sapiens) (P14416 whole entry): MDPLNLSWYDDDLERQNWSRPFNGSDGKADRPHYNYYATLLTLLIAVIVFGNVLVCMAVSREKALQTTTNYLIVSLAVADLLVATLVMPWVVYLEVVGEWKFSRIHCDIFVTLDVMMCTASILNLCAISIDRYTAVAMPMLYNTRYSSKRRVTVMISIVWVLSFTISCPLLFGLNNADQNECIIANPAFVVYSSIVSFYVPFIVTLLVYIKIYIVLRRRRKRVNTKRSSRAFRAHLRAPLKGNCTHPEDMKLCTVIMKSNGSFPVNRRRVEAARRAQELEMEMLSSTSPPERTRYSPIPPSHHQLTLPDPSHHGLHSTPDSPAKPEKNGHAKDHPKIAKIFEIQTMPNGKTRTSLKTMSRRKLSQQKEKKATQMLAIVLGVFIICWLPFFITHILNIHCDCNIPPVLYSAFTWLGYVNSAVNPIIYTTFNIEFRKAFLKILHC

[18] = biological target: Epidermal growth factor receptor (Homo sapiens) (UniProt P00533); test: Activity against EGF/HU in the Eurofins Panlabs screen (BI) by Radioactive Assay; conditions: Compound concentration 10.0 uM
[19] = biological target: Neutrophil elastase (Homo sapiens) (UniProt P08246); test: Activity against ELASTASEPMN in the Eurofins Panlabs screen (BI) by absorption of electromagnetic radiation; conditions: Compound concentration 30.0 uM
[20] = biological target: Estrogen receptor (Bos taurus) (UniProt P49884); test: Activity against ESTROGEN/BO in the Eurofins Panlabs screen (BI) by Radioactive Assay; conditions: Compound concentration 10.0 uM
[21] = biological target: Galanin receptor type 1 (Rattus norvegicus) (UniProt Q62805); test: Activity against GALANIN/R in the Eurofins Panlabs screen (BI) by Radioactive Assay; conditions: Compound concentration 10.0 uM
[22] = biological target: Glucocorticoid receptor (Homo sapiens) (UniProt P04150); test: Activity against GCORTIC/H in the Eurofins Panlabs screen (BI) by Radioactive Assay; conditions: Compound concentration 10.0 uM
[23] = biological target: Metabotropic glutamate receptor (Rattus norvegicus) (UniProt P31424+P70579+P31423+P31421+P31422+P35349+P35400+P23385); test: Activity against GLUTAMAT/R in the Eurofins Panlabs screen (BI) by Radioactive Assay; assay type: protein assay; conditions: Compound concentration 10.0 uM
[24] = biological target: Glycine receptor (Rattus norvegicus) (UniProt P22771+P24524+P07727+P20781); test: Activity against GLYCINSTRS in the Eurofins Panlabs screen (BI) by Radioactive Assay; assay type: protein-complex assay; conditions: Compound concentration 10.0 uM
[25] = biological target: C-X-C chemokine receptor type 2 (Homo sapiens) (UniProt P25025); test: Activity against IL-8/H in the Eurofins Panlabs screen (BI) by Radioactive Assay; conditions: Compound concentration 10.0 uM
[26] = biological target: Nitric oxide synthase, inducible (Mus musculus) (UniProt P29477); test: Activity against INOS in the Eurofins Panlabs screen (BI) by absorption of electromagnetic radiation; conditions: Compound concentration 10.0 uM
Chain of Nitric oxide synthase, inducible (Mus musculus) (P29477 whole entry): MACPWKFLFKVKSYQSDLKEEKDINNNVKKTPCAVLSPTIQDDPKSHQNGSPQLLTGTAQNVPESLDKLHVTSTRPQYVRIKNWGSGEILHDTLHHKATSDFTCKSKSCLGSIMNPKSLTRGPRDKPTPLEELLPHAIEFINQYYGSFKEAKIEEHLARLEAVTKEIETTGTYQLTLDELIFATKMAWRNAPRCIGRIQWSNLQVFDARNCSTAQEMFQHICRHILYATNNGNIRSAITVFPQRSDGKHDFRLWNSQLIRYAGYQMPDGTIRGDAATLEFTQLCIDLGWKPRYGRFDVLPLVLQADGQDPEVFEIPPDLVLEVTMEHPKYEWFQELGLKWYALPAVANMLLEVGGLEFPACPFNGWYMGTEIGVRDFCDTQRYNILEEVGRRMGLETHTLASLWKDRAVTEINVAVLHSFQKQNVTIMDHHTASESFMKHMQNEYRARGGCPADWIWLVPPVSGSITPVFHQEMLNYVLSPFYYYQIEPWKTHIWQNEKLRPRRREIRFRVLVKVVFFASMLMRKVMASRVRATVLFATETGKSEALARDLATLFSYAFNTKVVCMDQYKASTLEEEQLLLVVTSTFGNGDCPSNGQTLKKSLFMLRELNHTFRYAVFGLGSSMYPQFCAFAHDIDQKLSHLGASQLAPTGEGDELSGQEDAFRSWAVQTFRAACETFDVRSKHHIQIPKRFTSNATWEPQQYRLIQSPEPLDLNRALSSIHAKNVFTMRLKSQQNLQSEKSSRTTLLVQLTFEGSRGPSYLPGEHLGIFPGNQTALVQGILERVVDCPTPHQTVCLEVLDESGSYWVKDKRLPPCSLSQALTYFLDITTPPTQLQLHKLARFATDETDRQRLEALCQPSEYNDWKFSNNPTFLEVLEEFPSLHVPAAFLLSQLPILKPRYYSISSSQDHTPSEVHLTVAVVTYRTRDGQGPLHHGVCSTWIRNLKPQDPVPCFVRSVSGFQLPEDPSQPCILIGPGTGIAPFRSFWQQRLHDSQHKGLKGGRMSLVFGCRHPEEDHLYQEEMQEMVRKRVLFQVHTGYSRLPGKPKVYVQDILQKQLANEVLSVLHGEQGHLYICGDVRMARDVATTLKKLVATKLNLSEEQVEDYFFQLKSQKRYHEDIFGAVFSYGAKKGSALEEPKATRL

[27] = biological target: Potassium voltage-gated channel subfamily A member 1 (Rattus norvegicus) (UniProt P10499); test: Activity against K+/KA/R in the Eurofins Panlabs screen (BI) by Radioactive Assay; conditions: Compound concentration 10.0 uM
[28] = biological target: Leukotriene A-4 hydrolase (Cavia porcellus) (UniProt P19602); test: Inhibitor of LTA4HYD in the Eurofins Panlabs screen (BI) by Radioactive Assay; conditions: Compound concentration 100.0 uM
[29] = biological target: Muscarinic acetylcholine receptor M1 (Rattus norvegicus) (UniProt P08482); test: Activity against M1/R in the Eurofins Panlabs screen (BI) by Radioactive Assay; conditions: Compound concentration 10.0 uM
[30] = biological target: Tyrosine-protein kinase Fyn (Homo sapiens) (UniProt P06241); test: Inhibitor of P59TYRKINFYN in the Eurofins Panlabs screen (BI) by FI - fluorescence intensity; conditions: Compound concentration 10.0 uM
[31] = biological target: Protein kinase C alpha type (Homo sapiens) (UniProt P17252); test: Inhibitor of PKCALPHA in the Eurofins Panlabs screen (BI) by Radioactive Assay; conditions: Compound concentration 10.0 uM
[32] = biological target: Androgen receptor (Rattus norvegicus) (UniProt P15207); test: Activity against TESTOST/R in the Eurofins Panlabs screen (BI) by Radioactive Assay; conditions: Compound concentration 10.0 uM

In the case of N=C(N)NCCC[C@@H](NC(=O)C(c1ccccc1)c1ccccc1)C(=O)NCc1ccc(CNC(N)=O)cc1, the residual activity [1] was 60%, the residual activity [2] was 57% and the residual activity [3] was 91%. It also gave a residual activity [4] of 107%, a residual activity (Rattus norvegicus [5]) of 83% and a residual activity [6] of 117%. The activity at 10 µM (hERG (KCNH2)) was 79% (not active), the residual activity [7] was 89% and the residual activity [8] was 109%. For the same compound, the IC50 [9] was > 10 µM (not active), the residual activity (Oryctolagus cuniculus) was 99% and the residual activity [10] was 97%. For the same compound, the residual activity [11] was 96%, the residual activity [12] was 91% and the residual activity [13] was 96%. The residual activity (Rattus norvegicus [14]) was 106%, the activity at 10 µM [15] was 82% (not active) and the residual activity [16] was 117%. The residual activity [17] was 97%, the residual activity [18] was 94% and the residual activity [19] was 94%. The residual activity [20] was 85%, the residual activity [21] was 91% and the residual activity [22] was 86%. For the same compound, the residual activity [23] was 95%, the residual activity [24] was 81% and the residual activity [25] was 100%. The residual activity [26] was 99%, the residual activity [27] was 99% and the residual activity [28] was 102%. For the same compound, the residual activity [29] was 73%, the residual activity [30] was 84% and the residual activity [31] was 80%. It also gave a residual activity [32] of 88%.
